Test results: patent US20070027150A1 (priority 2005, published 2007)

Target: His-tagged N-terminal ATP binding domain (amino acid residues 9-236) of HSP90α (Homo sapiens, UniProt P07900)
Test: HSP90 inhibitor binding potency: TRF competition binding assay
Conditions: Table I; read-out: Hsp90 IC50 Range
Method in brief: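 His-tagged HSP90α N-domain (residues 9-236) incubated 2 h at room temperature with biotinylated radicicol and increasing compound in 50 mM HEPES, 6 mM MgCl2, 20 mM KCl, 0.1% BSA. Bound tracer captured on streptavidin plates, detected with europium anti-His antibody by time-resolved fluorescence; IC50 derived.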

`Cc1nc(N)nc2c1C(=O)CC(c1ccc(Cl)cc1)C2` (stereo not drawn) [Compound 3, 2-amino-7-(4-chlorophenyl)-4-methyl-7,8-dihydroquinazolin-5(6H)-one] was tested. Which IC50 did it give?
Its IC50 is less than 1000 nM.

With `COc1ccc(-c2cccnc2F)c(C2CC(=O)c3c(C)nc(N)nc3C2)c1` (stereo not drawn) [Compound 98, 2-amino-7-[2-(2-fluoropyridin-3-yl)-5-methoxyphenyl]-4-methyl-7,8-dihydroquinazolin-5(6H)-one] as the compound, how does the IC50 read?
The IC50 was less than 1000 nM.

How did the IC50 turn out when `Cc1nc(N)nc2c1C(=O)CC(c1ccc(F)cc1-c1cncnc1)C2` (stereo not drawn) [Compound 60, 2-amino-7-(4-fluoro-2-pyrimidin-5-yl-phenyl)-4-methyl-7,8-dihydro-6H-quinazolin-5-one] was run?
The IC50 was less than 1000 nM.

With `Cc1nc(N)nc2c1C(=O)CC(c1ccccc1-c1cccc(C#N)c1)C2` (stereo not drawn) [Compound 65, 2′-(2-amino-4-methyl-5-oxo-5,6,7,8-tetrahydroquinazolin-7-yl)-1,1′-biphenyl-3-carbonitrile] as the compound, how does the IC50 read?
The IC50 was 1000 to 10000 nM.

With `COc1cccc(-c2cccc(OC)c2C2CC(=O)c3c(C)nc(N)nc3C2)n1` (stereo not drawn) [Compound 132, 2-amino-7-[2-methoxy-6-(6-methoxy-pyridin-2-yl)-phenyl]-4-methyl-7,8-dihydro-6H-quinazolin-5-one] as the compound, how does the IC50 read?
Its IC50 is less than 1000 nM.

How did the IC50 turn out when `Cc1nc(N)nc2c1C(=O)CC(c1nn(C)cc1C1CCCCC1)C2` (stereo not drawn) [Compound 47, 2-amino-7-(4-cyclohexyl-1-methyl-1H-pyrazol-3-yl)-4-methyl-7,8-dihydro-6H-quinazolin-5-one] was run?
Its IC50 is less than 1000 nM.

Which IC50 does the source give for `Cc1nc(N)nc2c1C(=O)CC(c1ccccc1CCc1ccccc1)C2` (stereo not drawn) [Compound 162, 2-amino-4-methyl-7-[2-(2-phenylethyl)phenyl]-7,8-dihydroquinazolin-5(6H)-one] here?
Its IC50 is greater than 10000 nM.

`Cc1nc(N)nc2c1C(=O)CC(c1ccccc1S(=O)(=O)c1ccccc1)C2` (stereo not drawn) [Compound 23, 2-amino-7-(2-benzenesulfonyl-phenyl)-4-methyl-7,8-dihydro-6H-quinazolin-5-one] was tested. Which IC50 did it give?
The IC50 was greater than 10000 nM.

`COc1cccc(-c2cccnc2F)c1C1CC(=O)c2c(C)nc(N)nc2C1` (stereo not drawn) [Compound 97, 2-amino-7-[2-(2-fluoropyridin-3-yl)-6-methoxyphenyl]-4-methyl-7,8-dihydroquinazolin-5(6H)-one] was tested. Which IC50 did it give?
The IC50 was less than 1000 nM.

Which IC50 does the source give for `COc1ccncc1-c1ccccc1C1CC(=O)c2c(C)nc(N)nc2C1` (stereo not drawn) [Compound 72, 2-amino-7-[2-(4-methoxypyridin-3-yl)phenyl]-4-methyl-7,8-dihydroquinazolin-5(6H)-one] here?
Its IC50 is 1000 to 10000 nM.

Which IC50 does the source give for `Cc1nc(N)nc2c1C(=O)CC(c1ccccc1-c1ccccc1OC(F)(F)F)C2` (stereo not drawn) [Compound 111, 2-amino-4-methyl-7-[2′-(trifluoromethoxy)-1,1′-biphenyl-2-yl]-7,8-dihydroquinazolin-5(6H)-one] here?
Its IC50 is less than 1000 nM.

Which IC50 does the source give for `Cc1nc(N)nc2c1C(=O)CC(c1cccc(-c3cccnc3F)c1)C2` (stereo not drawn) [Compound 54] here?
Its IC50 is greater than 10000 nM.

Which IC50 does the source give for `Cc1nc(N)nc2c1C(=O)CC(c1c(-c3cccnc3F)cnn1C)C2` (stereo not drawn) [Compound 64, 2-amino-7-[4-(2-fluoro-pyridin-3-yl)-2-methyl-2H-pyrazol-3-yl]-4-methyl-7,8-dihydro-6H-quinazolin-5-one] here?
Its IC50 is 1000 to 10000 nM.

Which IC50 does the source give for `Cc1nc(N)nc2c1C(=O)CC(c1ccccc1-c1cccc(CN(C)C)c1)C2` (stereo not drawn) [Compound 174, 2-amino-7-{3′-[(dimethylamino)methyl]-1,1′-biphenyl-2-yl}-4-methyl-7,8-dihydroquinazolin-5(6H)-one] here?
Its IC50 is 1000 to 10000 nM.

Same assay, conditions: Table II; read-out: Hsp90 IC50 Range

How did the IC50 turn out when `Cc1nc(N)nc2c1C(=O)CC(c1ccc(F)cc1OCCC1CC1)C2` (stereo not drawn) [Compound 262, 2-amino-7-[2-(2-cyclopropyl-ethoxy)-4-fluoro-phenyl]-4-methyl-7,8-dihydro-6H-quinazolin-5-one] was run?
Its IC50 is less than 1000 nM.

With `COc1cccc(-c2ccccc2C2CC(=O)c3c(C)nc(N)nc3C2)c1F` (stereo not drawn) [Compound 235, 2-amino-7-(2′-fluoro-3′-methoxy-biphenyl-2-yl)-4-methyl-7,8-dihydro-6H-quinazolin-5-one] as the compound, how does the IC50 read?
The IC50 was 1000 to 10000 nM.

With `Cc1nc(N)nc2c1C(=O)CC(c1ccc(F)cc1-c1nccnc1Cl)C2` (stereo not drawn) [Compound 228, 2-amino-7-[2-(3-chloro-pyrazin-2-yl)-4-fluoro-phenyl]-4-methyl-7,8-dihydro-6H-quinazolin-5-one] as the compound, how does the IC50 read?
The IC50 was 1000 to 10000 nM.

For `Cc1nc(N)nc2c1C(=O)CC(c1ccc(F)cc1-c1cccc(C(F)(F)F)n1)C2` (stereo not drawn) [Compound 279, 2-amino-7-[4-fluoro-2-(6-trifluoromethyl-pyridin-2-yl)-phenyl]-4-methyl-7,8-dihydro-6H-quinazolin-5-one], which IC50 is on record?
Its IC50 is less than 1000 nM.

`COc1cccc(-c2ccc(F)cc2C2CC(=O)c3c(C)nc(N)nc3C2)n1` (stereo not drawn) [Compound 283, 2-amino-7-[5-fluoro-2-(6-methoxy-pyridin-2-yl)-phenyl]-4-methyl-7,8-dihydro-6H-quinazolin-5-one] was tested. Which IC50 did it give?
Its IC50 is less than 1000 nM.

`Cc1nc(N)nc2c1C(=O)CC(c1ccc(F)cc1OC1CCCC1C)C2` (stereo not drawn) [Compound 268, 2-amino-7-[4-fluoro-2-(2-methyl-cyclopentyloxy)-phenyl]-4-methyl-7,8-dihydro-6H-quinazolin-5-one] was tested. Which IC50 did it give?
The IC50 was less than 1000 nM.

How did the IC50 turn out when `Cc1nc(N)nc2c1C(=O)C[C@@H](c1ccc(F)cc1-c1cnc3ncn(C)c3n1)C2` [Compound 331, (S)-2-amino-7-[4-fluoro-2-(3-methyl-3H-imidazo[4,5-b]pyrazin-5-yl)-phenyl]-4-methyl-7,8-dihydro-6H-quinazolin-5-one] was run?
Its IC50 is greater than 10000 nM.

How did the IC50 turn out when `COc1nc(-c2cc(F)ccc2[C@@H]2CC(=O)c3c(C)nc(N)nc3C2)ncc1Cl` [Compound 300, (S)-2-amino-7-[2-(5-chloro-4-methoxy-pyrimidin-2-yl)-4-fluoro-phenyl]-4-methyl-7,8-dihydro-6H-quinazolin-5-one] was run?
Its IC50 is less than 1000 nM.

`Cc1nc(N)nc2c1C(=O)CC(c1ccc(F)cc1OCC(C)C)C2` (stereo not drawn) [Compound 266, 2-amino-7-(4-fluoro-2-isobutoxy-phenyl)-4-methyl-7,8-dihydro-6H-quinazolin-5-one] was tested. Which IC50 did it give?
The IC50 was less than 1000 nM.

With `COc1nc(-c2cc(F)ccc2C2CC(=O)c3c(C)nc(N)nc3C2)ncc1C` (stereo not drawn) [Compound 259, 2-amino-7-[4-fluoro-2-(4-methoxy-5-methyl-pyrimidin-2-yl)-phenyl]-4-methyl-7,8-dihydro-6H-quinazolin-5-one] as the compound, how does the IC50 read?
The IC50 was less than 1000 nM.

With `COc1ccccc1-c1scnc1C1CC(=O)c2c(C)nc(N)nc2C1` (stereo not drawn) [Compound 301, 2-amino-7-[5-(2-methoxy-phenyl)-thiazol-4-yl]-4-methyl-7,8-dihydro-6H-quinazolin-5-one] as the compound, how does the IC50 read?
The IC50 was less than 1000 nM.

`COc1cncc(-c2ccc(F)cc2C2CC(=O)c3c(C)nc(N)nc3C2)n1` (stereo not drawn) [Compound 286, 2-amino-7-[5-fluoro-2-(6-methoxy-pyrazin-2-yl)-phenyl]-4-methyl-7,8-dihydro-6H-quinazolin-5-one] was tested. Which IC50 did it give?
Its IC50 is 1000 to 10000 nM.

How did the IC50 turn out when `COc1ccc(F)c(-c2cc(F)ccc2[C@H]2CC(=O)c3c(C)nc(N)nc3C2)n1` [Compound 314, (R)-2-amino-7-[4-fluoro-2-(3-fluoro-6-methoxy-pyridin-2-yl)-phenyl]-4-methyl-7,8-dihydro-6H-quinazolin-5-one] was run?
The IC50 was 1000 to 10000 nM.

With `Cc1nc(N)nc2c1C(=O)C[C@H](c1ccc(F)cc1-c1cccc(F)n1)C2` [Compound 213, (R)-2-amino-7-[4-fluoro-2-(6-fluoro-pyridin-2-yl)-phenyl]-4-methyl-7,8-dihydro-6H-quinazolin-5-one] as the compound, how does the IC50 read?
Its IC50 is 1000 to 10000 nM.

With `Nc1nc(CCc2ccccc2)c2c(n1)CC(c1ccccc1)CC2=O` (stereo not drawn) [Compound 305, 2-amino-4-phenethyl-7-phenyl-7,8-dihydro-6H-quinazolin-5-one] as the compound, how does the IC50 read?
The IC50 was greater than 10000 nM.

`CCc1ccccc1-n1ccnc1C1CC(=O)c2c(C)nc(N)nc2C1` (stereo not drawn) [Compound 195, 2-amino-7-[1-(2-ethyl-phenyl)-1H-imidazol-2-yl]-4-methyl-7,8-dihydro-6H-quinazolin-5-one] was tested. Which IC50 did it give?
Its IC50 is less than 1000 nM.

`Cc1nc(N)nc2c1C(=O)C(C)C(c1ccccc1)C2` (stereo not drawn) [Compound 248, 2-amino-4,6-dimethyl-7-phenyl-7,8-dihydro-6H-quinazolin-5-one] was tested. Which IC50 did it give?
The IC50 was less than 1000 nM.

With `COc1ncc(-c2cc(F)ccc2[C@@H]2CC(=O)c3c(C)nc(N)nc3C2)nc1OC` [Compound 323, (S)-2-amino-7-[2-(5,6-dimethoxy-pyrazin-2-yl)-4-fluoro-phenyl]-4-methyl-7,8-dihydro-6H-quinazolin-5-one] as the compound, how does the IC50 read?
Its IC50 is less than 1000 nM.

`COc1ccc(Br)c(C2CC(=O)c3c(C)nc(N)nc3C2)c1` (stereo not drawn) [Compound 239, 2-amino-7-(2-bromo-5-methoxy-phenyl)-4-methyl-7,8-dihydro-6H-quinazolin-5-one] was tested. Which IC50 did it give?
The IC50 was 1000 to 10000 nM.

How did the IC50 turn out when `COc1ccccc1-n1ccnc1C1CC(=O)c2c(C)nc(N)nc2C1` (stereo not drawn) [Compound 194, 2-amino-7-[1-(2-methoxy-phenyl)-1H-imidazol-2-yl]-4-methyl-7,8-dihydro-6H-quinazolin-5-one] was run?
The IC50 was less than 1000 nM.

How did the IC50 turn out when `COc1ccnc(-c2cc(F)ccc2C2CC(=O)c3c(C)nc(N)nc3C2)n1` (stereo not drawn) [Compound 257, 2-amino-7-[4-fluoro-2-(4-methoxy-pyrimidin-2-yl)-phenyl]-4-methyl-7,8-dihydro-6H-quinazolin-5-one] was run?
The IC50 was less than 1000 nM.

Which IC50 does the source give for `Cc1nc(N)nc2c1C(=O)CC(c1ccccc1)C2C` (stereo not drawn) [Compound 247, 2-amino-4,8-dimethyl-7-phenyl-7,8-dihydro-6H-quinazolin-5-one] here?
The IC50 was 1000 to 10000 nM.

With `Nc1nc(Cc2ccc(F)cc2)c2c(n1)CC(c1ccccc1)CC2=O` (stereo not drawn) [Compound 307, 2-amino-4-(4-fluoro-benzyl)-7-phenyl-7,8-dihydro-6H-quinazolin-5-one] as the compound, how does the IC50 read?
The IC50 was 1000 to 10000 nM.

`COc1ccc(Cc2nc(N)nc3c2C(=O)CC(c2ccccc2)C3)cc1` (stereo not drawn) [Compound 304, 2-amino-4-(4-methoxy-benzyl)-7-phenyl-7,8-dihydro-6H-quinazolin-5-one] was tested. Which IC50 did it give?
Its IC50 is 1000 to 10000 nM.

Which IC50 does the source give for `COc1cccc(-c2ccccc2C2CC(=O)c3c(nc(N)nc3C(F)(F)F)C2)n1` (stereo not drawn) [Compound 216, 2-amino-7-[2-(6-methoxy-pyridin-2-yl)-phenyl]-4-trifluoromethyl-7,8-dihydro-6H-quinazolin-5-one] here?
Its IC50 is less than 1000 nM.
